# Data: ChEMBL document CHEMBL1137794, “Didemnins and tunichlorin: novel natural products from the marine tunicate Trididemnum solidum” (J Nat Prod, 1988)
# Calls of active or inactive are those of the source. The rule behind the calls is not given here. *1 amine or outer side, *2 acyl side, *3 side chain or, on linkers, in order; H or OH if unused. Where a SMILES comes first, the peptide text is derived from it. Bridges are numbered along the chain shown (N, C = ends). [ ]: non-standard residue; d: D form. X1 = CC[C@H](C)[C@@H](N[*:1])[C@@H](O)CC(=O)O[C@H](C(=O)[C@H](C)C(=O)[*:2])C(C)C; NMeY = CN[C@@H](Cc1ccc(O)cc1)C(=O)O; dNMeL = CN[C@H](CC(C)C)C(=O)O; Lac = C[C@H](O)C(=O)O
# Key:
# [1] = tested on: L1210; assay: Cytotoxicity against mouse L1210 cells; format: functional; details: read-out: ID50 (the source's name)
# [2] = tested on: Lymphocyte; assay: Immunosuppressive activity in human lymphocytes assessed as inhibition of protein synthesis
# [3] = tested on: T-cell; assay: Immunosuppressive activity in human T cell assessed as inhibition of mitogenesis; format: functional, cell-based
# [4] = tested on: T-cell; assay: Immunosuppressive activity in rat T cell assessed as inhibition of mitogenesis
# [5] = tested on: B cell; assay: Immunosuppressive activity in human B cell assessed as inhibition of mitogenesis
# [6] = tested on: T-cell; assay: Immunosuppressive activity in baboon T cell assessed as inhibition of mitogenesis; details: Papio hamadryas
# [7] = tested on: Lymphocyte; assay: Immunosuppressive activity in human lymphocytes by mixed lymphocyte reaction assay; format: functional, cell-based
# [8] = tested on: Lymphocyte; assay: Immunosuppressive activity in baboon lymphocytes by mixed lymphocyte reaction assay; details: Papio hamadryas
# [9] = tested on: P388; assay: Antitumor activity against mouse P388 cells xenografted mouse assessed as extend the life time at 0.03 to 1 mg/kg, ip; format: functional; details: dose mg/kg 0.03-1; route intraperitoneal
# [10] = tested on: Mus musculus; assay: Toxicity in mouse P388 cells xenografted mouse at 0.5 mg/kg, ip administered on day 1 to day 9; format: organism-based; parameters: dose 0.5 mg/kg, route intraperitoneal; details: in vivo
# [11] = tested on: Rift Valley fever virus; assay: Antiviral activity against Rift Valley fever virus infected in african green monkey Vero cells assessed as plaque reduction at 0.05 ug/mL; format: functional, organism-based
# [12] = tested on: Mus musculus; assay: Toxicity in mouse P388 cells xenografted mouse assessed as change in body weight at 0.06 mg/kg, ip administered on day 1, 5 and day 9; format: organism-based; parameters: dose 0.06 mg/kg, route intraperitoneal; details: in vivo
# [13] = species: Rattus norvegicus; assay: Toxicity in rat; format: organism-based; details: in vivo
# [14] = tested on: Venezuelan equine encephalitis virus; assay: Antiviral activity against Venezuelan equine encephalomyelitis virus infected in african green monkey Vero cells assessed as plaque reduction at 0.05 ug/mL; format: functional, organism-based
# [15] = tested on: Mus musculus; assay: Toxicity in mouse P388 cells xenografted mouse assessed as change in body weight at 0.25 mg/kg, ip administered on day 1, 5 and day 9; format: organism-based; parameters: dose 0.25 mg/kg, route intraperitoneal; details: in vivo
# [16] = tested on: Mus musculus; assay: Toxicity in mouse P388 cells xenografted mouse assessed as change in body weight at 0.5 mg/kg, ip administered on day 1, 5 and day 9; format: organism-based; parameters: dose 0.5 mg/kg, route intraperitoneal; details: in vivo
# [17] = tested on: Mus musculus; assay: Toxicity in mouse B16 cells xenografted mouse assessed as change in body weight at 0.5 mg/kg, ip administered on day 1 to day 9; format: organism-based; parameters: dose 0.5 mg/kg, route intraperitoneal; details: in vivo
# [18] = species: Canis familiaris; assay: Toxicity in dog; format: organism-based, Canis lupus familiaris; details: in vivo
# [19] = species: Mus musculus; assay: Toxicity in mouse; format: organism-based; details: in vivo
# [20] = tested on: Sandfly fever Sicilian virus; assay: Antiviral activity against Sandfly fever virus assessed as plaque reduction at 0.05 ug/mL; format: functional, organism-based
# [21] = tested on: Mus musculus; assay: Toxicity in mouse B16 cells xenografted mouse assessed as change in body weight at 0.06 mg/kg, ip administered on day 1 to day 9; format: organism-based; parameters: dose 0.06 mg/kg, route intraperitoneal; details: in vivo
# [22] = tested on: Yellow fever virus; assay: Antiviral activity against Yellow fever virus infected in rhesus monkey MK2 cells assessed as plaque reduction at 0.05 ug/mL; format: functional, organism-based
# [23] = tested on: Mus musculus; assay: Toxicity in mouse B16 cells xenografted mouse assessed as change in body weight at 0.03 mg/kg, ip administered on day 1 to day 9; format: organism-based; parameters: dose 0.03 mg/kg, route intraperitoneal; details: in vivo
# [24] = tested on: Mus musculus; assay: Toxicity in mouse B16 cells xenografted mouse assessed as change in body weight at 0.25 mg/kg, ip administered on day 1 to day 9; format: organism-based; parameters: dose 0.25 mg/kg, route intraperitoneal; details: in vivo
# [25] = tested on: Mus musculus; assay: Toxicity in mouse P388 cells xenografted mouse at 0.06 mg/kg, ip administered on day 1 to day 9; format: organism-based; parameters: dose 0.06 mg/kg, route intraperitoneal; details: in vivo
# [26] = tested on: Mus musculus; assay: Toxicity in mouse P388 cells xenografted mouse assessed as change in body weight at 1 mg/kg, ip administered on day 1, 5 and day 9; format: organism-based; parameters: dose 1 mg/kg, route intraperitoneal; details: in vivo
# [27] = tested on: Mus musculus; assay: Toxicity in mouse P388 cells xenografted mouse assessed as change in body weight at 0.5 mg/kg, ip administered on day 1 to day 9; format: organism-based; parameters: dose 0.5 mg/kg, route intraperitoneal; details: in vivo
# [28] = tested on: Mus musculus; assay: Toxicity in mouse P388 cells xenografted mouse assessed as change in body weight at 0.06 mg/kg, ip administered on day 1 to day 9; format: organism-based; parameters: dose 0.06 mg/kg, route intraperitoneal; details: in vivo
# [29] = tested on: Mus musculus; assay: Toxicity in mouse P388 cells xenografted mouse assessed as change in body weight at 1 mg/kg, ip administered on day 1 to day 9; format: organism-based; parameters: dose 1 mg/kg, route intraperitoneal; details: in vivo
# [30] = tested on: Mus musculus; assay: Toxicity in mouse B16 cells xenografted mouse assessed as change in body weight at 1 mg/kg, ip administered on day 1, 5 and day 9; format: organism-based; parameters: dose 1 mg/kg, route intraperitoneal; details: in vivo
# [31] = tested on: Mus musculus; assay: Toxicity in mouse B16 cells xenografted mouse at 0.5 mg/kg, ip administered on day 1 to day 9; format: organism-based; parameters: dose 0.5 mg/kg, route intraperitoneal; details: in vivo
# [32] = tested on: Mus musculus; assay: Toxicity in mouse B16 cells xenografted mouse assessed as change in body weight at 0.5 mg/kg, ip administered on day 1, 5 and day 9; format: organism-based; parameters: dose 0.5 mg/kg, route intraperitoneal; details: in vivo
# [33] = tested on: Mus musculus; assay: Toxicity in mouse B16 cells xenografted mouse assessed as change in body weight at 0.25 mg/kg, ip administered on day 1, 5 and day 9; format: organism-based; parameters: dose 0.25 mg/kg, route intraperitoneal; details: in vivo
# [34] = tested on: Mus musculus; assay: Toxicity in mouse B16 cells xenografted mouse assessed as change in body weight at 0.06 mg/kg, ip administered on day 1, 5 and day 9; format: organism-based; parameters: dose 0.06 mg/kg, route intraperitoneal; details: in vivo
# [35] = tested on: Mus musculus; assay: Toxicity in mouse P388 cells xenografted mouse assessed as change in body weight at 0.03 mg/kg, ip administered on day 1, 5 and day 9; format: organism-based; parameters: dose 0.03 mg/kg, route intraperitoneal
# [36] = species: Mus musculus; assay: Immunosuppressive activity in spleen cells transformed mouse assessed as inhibition of splenomegaly by graft-versus-host reaction assay; format: functional, organism-based
# [37] = tested on: Mus musculus; assay: Toxicity in mouse P388 cells xenografted mouse assessed as change in body weight at 0.25 mg/kg, ip administered on day 1 to day 9; format: organism-based; parameters: dose 0.25 mg/kg, route intraperitoneal; details: in vivo
# [38] = tested on: Yellow fever virus; assay: Antiviral activity against Yellow fever virus infected in rhesus monkey MK2 cells assessed as plaque reduction at 250 ug/mL; format: functional, organism-based
# [39] = tested on: Venezuelan equine encephalitis virus; assay: Antiviral activity against Venezuelan equine encephalomyelitis virus infected in african green monkey Vero cells assessed as plaque reduction at 250 ug/mL; format: functional, organism-based
# [40] = tested on: Rift Valley fever virus; assay: Antiviral activity against Rift Valley fever virus infected in african green monkey Vero cells assessed as plaque reduction at 250 ug/mL; format: functional, organism-based
# [41] = tested on: Sandfly fever Sicilian virus; assay: Antiviral activity against Sandfly fever virus assessed as plaque reduction at 250 ug/mL; format: functional, organism-based
structure (smiles),measurement,setting,value
CC[C@H](C)[C@H]1NC(=O)[C@@H](NC(=O)[C@@H](CC(C)C)N(C)C(=O)[C@H](C)O)[C@@H](C)OC(=O)[C@H](Cc2ccc(OC)cc2)N(C)C(=O)[C@@H]2CCCN2C(=O)[C@H](CC(C)C)NC(=O)[C@@H](C)C(=O)[C@H](C(C)C)OC(=O)C[C@@H]1O [DIDEMNIN C] (H-[Lac][dNMeL]T[X1]LP[NMeY](Me); ester 3-C),IC50,[1],0.002 µg/mL
Cn1cnc([N+](=O)[O-])c1Sc1ncnc2[nH]cnc12 [AZATHIOPRINE],IC50,[2],85 µg/mL
same,IC50,[3],9 µg/mL
same,IC50,[4],2 µg/mL
same,IC50,[5],1 µg/mL
same,IC50,[6],0.4 µg/mL
same,IC50,[7],3 µg/mL
same,IC50,[8],2.9 µg/mL
CC[C@H](C)[C@H]1NC(=O)[C@@H](NC(=O)[C@@H](CC(C)C)NC)[C@@H](C)OC(=O)[C@H](Cc2ccc(OC)cc2)N(C)C(=O)[C@@H]2CCCN2C(=O)[C@H](CC(C)C)NC(=O)[C@@H](C)C(=O)[C@H](C(C)C)OC(=O)C[C@@H]1O [DIDEMNIN A] (H-[dNMeL]T[X1]LP[NMeY](Me); ester 2-C),Activity,[9],100%
same,IC50,[1],0.002 µg/mL
CC[C@H](C)[C@H]1NC(=O)[C@@H](NC(=O)[C@@H](CC(C)C)N(C)C(=O)[C@@H]2CCCN2C(=O)C(C)O)[C@@H](C)OC(=O)[C@H](Cc2ccc(OC)cc2)N(C)C(=O)[C@@H]2CCCN2C(=O)[C@H](CC(C)C)NC(=O)[C@@H](C)C(=O)[C@H](C(C)C)OC(=O)C[C@@H]1O (some centres not stated) [DIDEMNIN B],Activity,[10],Toxic
same,Activity,[11],Active
same,Activity,[12],1.2 g
same,Activity,[13],Toxic
same,Activity,[14],Active
same,Activity,[15],-0.5 g
same,Activity,[16],-1.7 g
same,Activity,[17],-4.5 g
same,Activity,[18],Toxic
same,Activity,[19],Toxic
same,Activity,[20],Active
same,Activity,[21],-0.4 g
same,Activity,[22],Active
same,Activity,[23],0.8 g
same,Activity,[24],-3.3 g
same,Activity,[25],Toxic
same,Activity,[26],-3.8 g
same,Activity,[27],-3.4 g
same,Activity,[28],0.1 g
same,Activity,[29],Toxic
same,Activity,[30],-3.2 g
same,Activity,[31],Toxic
same,Activity,[32],-1.3 g
same,Activity,[33],0.3 g
same,Activity,[34],1.2 g
same,body weight change,[35],1600 mg
same,inhibition,[36],Dose-dependent effect
same,Activity,[37],-2.2 g
NC(=O)c1ncn([C@@H]2O[C@H](CO)[C@@H](O)[C@H]2O)n1,Activity,[38],Active
same,Activity,[39],Active
same,Activity,[40],Active
same,Activity,[41],Active
